Earlier results as cited in US12404524B2, “Expression vector” (priority 2019, dated 2025).

Tested on: common Streptomyces expression strains
Settings: inducers of Potr and PnitA in single-gene expression experiments

SMILES: O=C1CCCCCN1 [ε-caprolactam]
- effect on physiology or growth rate: no effect

SMILES: CN(C)[C@@H]1C(O)=C(C(N)=O)C(=O)[C@@]2(O)C(O)=C3C(=O)c4c(O)cccc4[C@@](C)(O)[C@H]3[C@H](O)[C@@H]12 [oxytetracycline]
- effect on physiology or growth rate: no effect
